Measured values: patent USRE50663E1, “Heterocycle derivatives as pesticides” (Bayer Aktiengesellschaft, priority 2017, dated 2025)

Legend:
Format in all cases: in vivo
[1] = test system: adult cat fleas (Ctenocephalides felis); test: Ctenocephalides felis oral test; conditions: 48 h, 100 ppm in citrated cattle blood, after 2 days, read-out: efficacy (kill)
Procedure: Solvent: dimethyl sulfoxide
To produce a suitable active compound formulation, 10 mg of active compound are mixed with 0.5 ml of dimethyl sulfoxide. Dilution with citrated cattle blood gives the desired concentration.
About 20 unfed adult cat fleas (Ctenocephalides felis) are placed into a chamber which is closed at the top and bottom with gauze. A metal cylinder whose bottom end is closed with parafilm is placed onto the chamber. The cylinder contains the blood/active compound formulation, which can be imbibed by the fleas through the parafilm membrane.
After 2 days, the kill in % is determined. 100% means that all of the fleas have been killed; 0% means that none of the fleas have been killed.

[2] = test system: green peach aphid (Myzus persicae); test: Myzus persicae spray test; conditions: foliar, 120 h, 100 g/ha, after 5 days, Chinese cabbage leaf discs, read-out: efficacy
Procedure: Solvent: 78 parts by weight of acetone • • 1.5 parts by weight of dimethylformamide
(§1) Emulsifier: alkylaryl polyglycol ether
(§2) To produce a suitable active compound formulation, 1 part by weight of active compound is dissolved with the specified parts by weight of solvent and made up to the desired concentration with water containing an emulsifier concentration of 1000 ppm. To produce further test concentrations, the formulation is diluted with emulsifier-containing water.
Discs of Chinese cabbage leaves (Brassica pekinensis) infested by all stages of the green peach aphid (Myzus persicae) are sprayed with an active compound formulation of the desired concentration.
After 5 days, the efficacy in % is determined. 100% means that all the aphids have been killed; 0% means that no aphids have been killed.

[3] = test system: larvae of the mustard beetle (Phaedon cochleariae); test: Phaedon cochleariae spray test; conditions: foliar, 168 h, 100 g/ha, after 7 days, Chinese cabbage leaf discs, read-out: efficacy
Procedure: (§3) Solvent: 78.0 parts by weight of acetone • • 1.5 parts by weight of dimethylformamide
as §1, §2
Discs of Chinese cabbage leaves (Brassica pekinensis) are sprayed with an active compound formulation of the desired concentration and, after drying, populated with larvae of the mustard beetle (Phaedon cochleariae).
After 7 days, the efficacy in % is determined. 100% means that all the beetle larvae have been killed; 0% means that no beetle larvae have been killed.

[4] = test system: caterpillars of the fall armyworm (Spodoptera frugiperda); test: Spodoptera frugiperda spray test; conditions: foliar, 168 h, 100 g/ha, after 7 days, maize leaf discs, read-out: efficacy
Procedure: as §3, §1, §2
Leaf discs of maize (Zea mays) are sprayed with an active compound formulation of the desired concentration and, after drying, populated with caterpillars of the fall armyworm (Spodoptera frugiperda).
After 7 days, the efficacy in % is determined. 100% means that all the caterpillars have been killed; 0% means that no caterpillar has been killed.

[5] = test system: greenhouse red spider mite (Tetranychus urticae); test: Tetranychus urticae spray test, OP-resistant; conditions: 20 g/ha, after 6 days, bean leaf discs
Procedure: as §3, §1, §2
Discs of bean leaves (Phaseolus vulgaris) infested with all stages of the greenhouse red spider mite (Tetranychus urticae) are sprayed with an active compound formulation of the desired concentration.
After 6 days, the efficacy in % is determined. 100% means that all the spider mites have been killed; 0% means that no spider mites have been killed.

[6] = test system: larvae of the mustard beetle (Phaedon cochleariae); test: Comparative Phaedon cochleariae spray test (PHAECO); conditions: 168 h, 7 dat, read-out: % efficacy
Procedure: (§4) Solvent: 14 parts by weight of dimethylformamide
as §1
as §2, with “water. If the addition of ammonium salts or/and penetrants is required, these are each added in a concentration of 1000 ppm to the formulation solution.” for “water.”
Cabbage leaves (Brassica oleracea) are sprayed with an active ingredient formulation of the desired concentration and populated with larvae of the mustard beetle (Phaedon cochleariae).
After the desired time, the kill in % is determined. 100% means that all the beetle larvae have been killed; 0% means that no beetle larvae have been killed.

[7] = test system: larvae of the diamondback moth (Plutella xylostella); test: Comparative Plutella xylostella spray test (PLUTMA); conditions: 168 h, 7 dat, read-out: % efficacy
Procedure: as §4, §1
as §2, with “water. If the addition of ammonium salts or/and penetrants is required, these are each added in a concentration of 1000 ppm to the formulation solution.” for “water.”
Cabbage leaves (Brassica oleracea) are sprayed with an active ingredient formulation of the desired concentration and infected with larvae of the diamondback moth (Plutella xylostella).
(§5) After the desired time, the kill in % is determined. 100% means that all caterpillars have been killed; 0% means that none of the caterpillars have been killed.

[8] = test system: caterpillars of the armyworm (Spodoptera frugiperda); test: Comparative Spodoptera frugiperda spray test (SPODFR); conditions: 168 h, 7 dat, read-out: % efficacy
Procedure: as §4, §1
as §2, with “water. If the addition of ammonium salts or/and penetrants is required, these are each added in a concentration of 1000 ppm to the formulation solution.” for “water.”
Cotton leaves (Gossypium hirsutum) are sprayed with an active ingredient formulation of the desired concentration and populated with caterpillars of the armyworm (Spodoptera frugiperda).
as §5

[9] = test system: caterpillars of the armyworm (Spodoptera frugiperda); test: Comparative Spodoptera frugiperda drench test (SPODFR D); conditions: soil, 336 h, 14 dat, read-out: % efficacy
Procedure: (§6) Solvent: 7 parts by weight of dimethylformamide
(§7) Emulsifier: 2 parts by weight of alkylaryl polyglycol ether
(§8) To produce a suitable active ingredient formulation, 1 part by weight of active ingredient is mixed with the specified amounts of solvent and emulsifier, and the concentrate is diluted with water to the desired concentration, it being necessary to take into account the volume of soil which is drenched. It should be ensured that a concentration of 40 ppm of emulsifier in the soil is not exceeded. To produce further test concentrations, water is used for dilution.
Maize plants (Zea mays) in pots of soil are watered with an active ingredient formulation of the desired concentration and infected with caterpillars of the armyworm (Spodoptera frugiperda).
as §5

[10] = test system: caterpillars of the cotton bollworm (Heliothis armigera); test: Comparative Heliothis armigera spray test (HELIAR); conditions: Helicoverpa armigera, 168 h, 7 dat, read-out: % efficacy
Procedure: as §4, §1
as §2, with “water. If the addition of ammonium salts or/and penetrants is required, these are each added in a concentration of 1000 ppm to the formulation solution.” for “water.”
Cotton plants (Gossypium hirsutum) are sprayed with an active compound formulation of the desired concentration and, after drying, populated with caterpillars of the cotton bollworm (Heliothis armigera).
as §5

[11] = test system: green peach aphid (Myzus persicae); test: Comparative Myzus persicae spray test (MYZUPE); conditions: 144 h, 6 dat, read-out: % efficacy
Procedure: as §4, §1
as §2, with “water. If the addition of ammonium salts or/and penetrants is required, these are each added in a concentration of 1000 ppm to the formulation solution.” for “water.”
Bell pepper plants (Capsicum annuum) severely infested with the green peach aphid (Myzus persicae) are treated by spraying with the active ingredient formulation in the desired concentration.
After the desired time, the kill in % is determined. 100% means that all the animals have been killed; 0% means that no animals have been killed.

[12] = test system: green peach aphid (Myzus persicae); test: Comparative Myzus persicae drench test (MYZUPE D); conditions: soil, 240 h, 10 dat, read-out: % efficacy
Procedure: as §6, §7, §8
Savoy cabbage (Brassica oleracea) in pots with soil and infested by all stages of the green peach aphid (Myzus persicae) is watered with an active ingredient formulation of the desired concentration.
After the desired period of time, the efficacy in % is determined. 100% means that all the aphids have been killed; 0% means that no aphids have been killed.

[13] = test system: L2 larvae of the banded cucumber beetle (Diabrotica balteata); test: Comparative Diabrotica balteata drench test (DIABBA D); conditions: soil, 192 h, 8 dat, read-out: % efficacy
Procedure: as §6, §7, §8
In each case 5 maize corns (Zea mays) are sown into pots filled with earth, and the next day the pots are watered with the active compound preparation of the desired concentration. After one day, about 25 L2 larvae of the banded cucumber beetle (Diabrotica balteata) are added.
After 8 days, the efficacy in % is determined. 100% means that all 5 plants have germinated and grown; 0% means that none of the plants has emerged.

| SMILES | pest or weed control at 100 ppm [1] | pest or weed control at 100 g/ha [2] | pest or weed control at 100 g/ha [3] | pest or weed control at 100 g/ha [4] | efficacy [5] | Emax at 0.8 ppm ([6]; 0.8 ppm) | Emax at 4 ppm ([6]; 4 ppm) | Emax at 0.16 ppm [7] | Emax at 0.16 ppm [8] | Emax at 0.16 ppm [9] | Emax at 0.16 ppm [10] | Emax at 0.8 ppm [11] | Emax at 0.8 ppm [12] | Emax at 0.8 ppm ([13]; 0.8 ppm) | Emax at 4 ppm ([13]; 4 ppm) |
| --- | --- | --- | --- | --- | --- | --- | --- | --- | --- | --- | --- | --- | --- | --- | --- |
| CCS(=O)(=O)c1c(-c2nc3cc(C(F)(F)F)cnc3n2C)nc2cc(C(F)C3CC3)ccn12 (stereo not drawn) [Example I-22] | 100% | 90% | 100% | 100% | 90% |  |  |  |  |  |  |  |  |  |  |
| CCS(=O)(=O)c1c(-c2nc3cc(C(F)(F)F)cnc3n2C)nc2cc(C3CC3)ccn12 [known from WO 2016/162318, reference compound] |  |  |  |  |  | 0% | 60% | 45% | 65% | 40% | 10% | 0% | 0% | 30% | 70% |
